Source: ChEMBL document CHEMBL1926511, “Novel amino-piperidines as potent antibacterials targeting bacterial type IIA topoisomerases” (Bioorg Med Chem Lett, 2011)
Values after ≈ are worked out from the molar mass of the structure shown. Active and inactive are the calls of the source. The calls are words filed in the database; no cut-off is given here.

Assays:
[1] = Inhibition of Haemophilus influenzae DNA gyrase-dependent DNA replication by scintillation proximity assay
[2] = molecular target: T1, Voltage-gated inwardly rectifying potassium channel KCNH2 (Homo sapiens, UniProt Q12809); experiment: Displacement of [3H]dofetilide from human ERG by liquid scintillation counting
T1 sequence (Q12809 whole entry): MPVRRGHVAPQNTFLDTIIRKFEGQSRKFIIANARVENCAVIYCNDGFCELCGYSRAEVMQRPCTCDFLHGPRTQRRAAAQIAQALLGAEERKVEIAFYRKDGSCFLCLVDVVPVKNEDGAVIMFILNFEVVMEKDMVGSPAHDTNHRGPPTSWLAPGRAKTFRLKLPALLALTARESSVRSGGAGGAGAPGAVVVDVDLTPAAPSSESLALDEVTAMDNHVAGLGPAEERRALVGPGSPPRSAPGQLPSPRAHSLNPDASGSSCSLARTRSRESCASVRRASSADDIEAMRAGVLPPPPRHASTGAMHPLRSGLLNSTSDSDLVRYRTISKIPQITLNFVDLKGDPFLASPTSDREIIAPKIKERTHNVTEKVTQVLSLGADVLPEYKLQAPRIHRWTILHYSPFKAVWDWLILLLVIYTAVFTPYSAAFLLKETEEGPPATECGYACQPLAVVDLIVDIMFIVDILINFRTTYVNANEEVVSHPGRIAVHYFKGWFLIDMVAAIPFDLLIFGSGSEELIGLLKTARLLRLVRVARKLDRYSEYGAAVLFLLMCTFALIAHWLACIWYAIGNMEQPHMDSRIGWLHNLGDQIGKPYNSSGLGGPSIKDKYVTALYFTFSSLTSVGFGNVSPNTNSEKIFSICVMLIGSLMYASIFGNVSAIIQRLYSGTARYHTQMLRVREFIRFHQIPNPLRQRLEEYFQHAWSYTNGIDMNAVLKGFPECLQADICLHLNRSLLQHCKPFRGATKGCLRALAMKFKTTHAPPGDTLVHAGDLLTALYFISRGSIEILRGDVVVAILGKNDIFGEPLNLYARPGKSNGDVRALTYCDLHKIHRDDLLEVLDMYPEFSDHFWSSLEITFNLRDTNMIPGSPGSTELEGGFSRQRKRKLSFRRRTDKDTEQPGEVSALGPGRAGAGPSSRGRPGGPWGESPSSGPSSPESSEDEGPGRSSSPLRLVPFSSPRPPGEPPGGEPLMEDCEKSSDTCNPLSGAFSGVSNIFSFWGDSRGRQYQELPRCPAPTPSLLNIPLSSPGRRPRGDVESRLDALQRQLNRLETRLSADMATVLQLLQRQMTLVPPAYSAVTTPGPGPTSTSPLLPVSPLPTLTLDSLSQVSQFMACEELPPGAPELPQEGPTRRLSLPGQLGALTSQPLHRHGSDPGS

[3] = test system: Streptococcus pneumoniae; experiment: Antibacterial activity against Streptococcus pneumoniae 1629 after 18 to 24 hrs by broth microdilution method; assay type: functional
[4] = test system: Haemophilus influenzae; experiment: Antibacterial activity against Haemophilus influenzae H128 after 18 to 24 hrs by broth microdilution method; assay type: functional
[5] = Distribution coefficient, log D of the compound at pH 7.4; assay type: physicochemical; details: octanol/water
[6] = test system: Staphylococcus aureus; experiment: Antibacterial activity against Staphylococcus aureus WCUH 29 after 18 to 24 hrs by broth microdilution method; assay type: functional
[7] = molecular target: T1, Voltage-gated inwardly rectifying potassium channel KCNH2; experiment: Inhibition of human ERG expressed in HEK293 cells by patch-clamp electrophysiology; assay type: cell-based
[8] = test system: Streptococcus pneumoniae; experiment: Antibacterial activity against Streptococcus pneumoniae 1629 infected in rat respiratory tract infection model assessed as complete eradication of bacterial burden at 50 mg/kg, po after 31 hrs post infection; assay type: functional, organism-based; parameters: dose 50 mg/kg
[9] = test system: Streptococcus pneumoniae; experiment: Antibacterial activity against Streptococcus pneumoniae 1629 infected in rat respiratory tract infection model assessed as log reduction in bacterial burden at 50 mg/kg, po after 1 hr post infection relative to non-treated control; assay type: functional
[10] = test system: Streptococcus pneumoniae; experiment: Antibacterial activity against Streptococcus pneumoniae 1629 infected in rat respiratory tract infection model assessed as log reduction in bacterial burden at 50 mg/kg, po after 48 hrs post infection relative to non-treated control; assay type: functional
[11] = Inhibition of Escherichia coli DNA gyrase-dependent DNA replication by scintillation proximity assay
[12] = AUC in cynomolgus monkey at 5.2 mg/kg, po; assay type: ADME, organism-based, Macaca fascicularis; parameters: dose 5.2 mg/kg, route oral; details: plasma
[13] = Intrinsic clearance in cynomolgus monkey liver microsomes; assay type: ADME, Macaca fascicularis, Microsome
[14] = Blood clearance in cynomolgus monkey at 3.1 mg/kg, iv; assay type: ADME, organism-based, Macaca fascicularis; parameters: dose 3.1 mg/kg, route intravenous; details: whole blood
[15] = Mean residence time in Sprague-Dawley rat at 3.5 mg/kg, iv; assay type: ADME, organism-based; parameters: dose 3.5 mg/kg, route intravenous; details: in vivo
[16] = Volume of distribution at steady state in Beagle dog at 3.5 mg/kg, iv; assay type: ADME, organism-based, Canis lupus familiaris; parameters: dose 3.5 mg/kg, route intravenous; details: in vivo, read-out: Vdss
[17] = Volume of distribution at steady state in Sprague-Dawley rat at 3.5 mg/kg, iv; assay type: ADME, organism-based; parameters: dose 3.5 mg/kg, route intravenous; details: in vivo, read-out: Vdss
[18] = Blood clearance in Beagle dog at 3.5 mg/kg, iv; assay type: ADME, organism-based, Canis lupus familiaris; parameters: dose 3.5 mg/kg, route intravenous; details: whole blood
[19] = AUC in Sprague-Dawley rat at 5.6 mg/kg, po; assay type: ADME, organism-based; parameters: dose 5.6 mg/kg, route oral; details: plasma
[20] = test system: Liver; experiment: Intrinsic clearance in dog liver microsomes; assay type: ADME, Canis lupus familiaris, Microsome
[21] = Half life in Beagle dog at 3.5 mg/kg, iv; assay type: ADME, organism-based, Canis lupus familiaris; parameters: dose 3.5 mg/kg, route intravenous; details: in vivo
[22] = Oral bioavailability in cynomolgus monkey at 5.2 mg/kg; assay type: ADME, organism-based, Macaca fascicularis; details: in vivo
[23] = Half life in Sprague-Dawley rat at 3.5 mg/kg, iv; assay type: ADME, organism-based; parameters: dose 3.5 mg/kg, route intravenous; details: in vivo
[24] = Plasma protein binding in rat; assay type: ADME, cell-free; details: read-out: PPB (converted)
[25] = AUC in Beagle dog at 4 mg/kg, po; assay type: ADME, organism-based, Canis lupus familiaris; parameters: dose 4 mg/kg, route oral; details: plasma
[26] = Plasma protein binding in cynomolgus monkey; assay type: ADME, cell-free, Macaca fascicularis; details: read-out: PPB (converted)
[27] = Blood clearance in Sprague-Dawley rat at 3.5 mg/kg, iv; assay type: ADME, organism-based; parameters: dose 3.5 mg/kg, route intravenous; details: whole blood
[28] = Half life in cynomolgus monkey at 3.1 mg/kg, iv; assay type: ADME, organism-based, Macaca fascicularis; parameters: dose 3.1 mg/kg, route intravenous; details: in vivo
[29] = Mean residence time in cynomolgus monkey at 3.1 mg/kg, iv; assay type: ADME, organism-based, Macaca fascicularis; parameters: dose 3.1 mg/kg, route intravenous; details: in vivo
[30] = Volume of distribution at steady state in cynomolgus monkey at 3.1 mg/kg, iv; assay type: ADME, organism-based, Macaca fascicularis; parameters: dose 3.1 mg/kg, route intravenous; details: in vivo, read-out: Vdss
[31] = Oral bioavailability in Beagle dog at 4 mg/kg; assay type: ADME, organism-based, Canis lupus familiaris; details: in vivo
[32] = species: Canis familiaris; experiment: Hepatic blood flow in Beagle dog; assay type: ADME, organism-based, Canis lupus familiaris, Liver
[33] = test system: Cynomolgus monkey; experiment: Hepatic blood flow in cynomolgus monkey; assay type: ADME, organism-based, Macaca fascicularis, Liver
[34] = test system: Liver microsomes; experiment: Intrinsic clearance in human liver microsomes; assay type: ADME, Microsome
[35] = species: Rattus norvegicus; experiment: Hepatic blood flow in Sprague-Dawley rat; assay type: ADME, organism-based, Liver
[36] = Oral bioavailability in Sprague-Dawley rat at 5.6 mg/kg; assay type: ADME, organism-based; details: in vivo
[37] = Plasma protein binding in human; assay type: ADME, cell-free; details: read-out: PPB (converted)
[38] = Mean residence time in Beagle dog at 3.5 mg/kg, iv; assay type: ADME, organism-based, Canis lupus familiaris; parameters: dose 3.5 mg/kg, route intravenous; details: in vivo

COc1ccc2ncc(F)c(CCN3CCC(NCc4cc5c(cn4)OCCO5)CC3)c2c1
IC50 [1]: 0.031 µg/mL (≈ 0.0685 µM) | IC50 [2]: 5 µM | MIC [3]: 0.03 µg/mL (≈ 0.0663 µM) | MIC [4]: 0.25 µg/mL (≈ 0.552 µM) | logD [5]: 2.03 | MIC [6]: 0.01 µg/mL (≈ 0.0221 µM) | IC50 [7]: 6 µM

COc1ccc2ncc(F)c(CCN3CC[C@@H](NCc4cc5c(cn4)OCCO5)[C@H](O)C3)c2n1
IC50 [1]: 0.058 µg/mL (≈ 0.124 µM) | MIC [3]: 0.03 µg/mL (≈ 0.0639 µM) | MIC [4]: 0.5 µg/mL (≈ 1.06 µM) | logD [5]: 2.16 | MIC [6]: 0.01 µg/mL (≈ 0.0213 µM)

COc1ccc2ncc(F)c(CCN3CC[C@@H](NCc4cc5c(cn4)OCCO5)[C@@H](O)C3)c2n1
IC50 [1]: 0.051 µg/mL (≈ 0.109 µM) | Activity [8]: Active | log10cfu [9]: 2 | MIC [3]: 0.06 µg/mL (≈ 0.128 µM) | MIC [4]: 0.5 µg/mL (≈ 1.06 µM) | logD [5]: 1.38 | log10cfu [10]: >=4 | MIC [6]: 0.01 µg/mL (≈ 0.0213 µM)

COc1ccc2ncc(F)c(CCN3CC[C@H](NCc4cc5c(cn4)OCCO5)[C@@H](O)C3)c2n1
IC50 [1]: 0.058 µg/mL (≈ 0.124 µM) | MIC [3]: 0.03 µg/mL (≈ 0.0639 µM) | MIC [4]: 0.5 µg/mL (≈ 1.06 µM) | logD [5]: 2.1 | MIC [6]: 0.01 µg/mL (≈ 0.0213 µM)

COc1ccc2ncc(F)c(CCN3CC[C@H](NCc4cc5c(cn4)OCCO5)[C@H](O)C3)c2n1
IC50 [1]: 0.072 µg/mL (≈ 0.153 µM) | Activity [8]: Active | log10cfu [9]: 2 | MIC [3]: 0.06 µg/mL (≈ 0.128 µM) | MIC [4]: 0.5 µg/mL (≈ 1.06 µM) | logD [5]: 1.52 | log10cfu [10]: >=4 | MIC [6]: 0.03 µg/mL (≈ 0.0639 µM)

COc1ccc2ncc(F)c(CCN3CCC(NCc4cc5c(cn4)OCCO5)CC3)c2n1
IC50 [1]: 0.051 µg/mL (≈ 0.112 µM) | Activity [8]: Active | log10cfu [9]: 2 | MIC [3]: 0.01 µg/mL (≈ 0.022 µM) | MIC [4]: 0.125 µg/mL (≈ 0.276 µM) | logD [5]: 1.81 | log10cfu [10]: >=4 | MIC [6]: 0.01 µg/mL (≈ 0.022 µM)

COc1ccc2ncc(C#N)c(CCN3CCC(NCc4cc5c(cn4)OCCO5)CC3)c2n1
IC50 [1]: 0.144 µg/mL (≈ 0.313 µM) | MIC [3]: 0.03 µg/mL (≈ 0.0651 µM) | MIC [4]: 0.5 µg/mL (≈ 1.09 µM) | logD [5]: 1.48 | MIC [6]: 0.01 µg/mL (≈ 0.0217 µM)

COc1ccc2ncc(C#N)c(CCN3CCC(NCc4cc5c(cn4)OCS5)CC3)c2c1
IC50 [1]: 0.06 µg/mL (≈ 0.13 µM) | IC50 [2]: 0.5 µM | MIC [3]: 0.01 µg/mL (≈ 0.0217 µM) | MIC [4]: 0.25 µg/mL (≈ 0.542 µM) | logD [5]: 2.32 | MIC [6]: 0.01 µg/mL (≈ 0.0217 µM) | IC50 [7]: 2 µM

COc1ccc2nccc([C@@H](O)CN3CCC(NCc4ccc5c(c4)OCCO5)CC3)c2c1
MIC [3]: 0.125 µg/mL (≈ 0.278 µM) | MIC [4]: 0.5 µg/mL (≈ 1.11 µM) | IC50 [11]: 0.008 µg/mL (≈ 0.0178 µM) | logD [5]: 0.87 | MIC [6]: 0.125 µg/mL (≈ 0.278 µM)

COc1ccc2ncc(Cl)c(CCN3CCC(NCc4cc5c(cn4)OCCO5)CC3)c2n1
IC50 [1]: 0.027 µg/mL (≈ 0.0575 µM) | Activity [8]: Active | log10cfu [9]: 2 | IC50 [2]: 2 µM | MIC [3]: 0.01 µg/mL (≈ 0.0213 µM) | MIC [4]: 0.25 µg/mL (≈ 0.532 µM) | logD [5]: 2.4 | log10cfu [10]: >=4 | MIC [6]: 0.01 µg/mL (≈ 0.0213 µM) | IC50 [7]: 2 µM

COc1ccc2nccc([C@@H](O)CN3CCC(NCc4cc5c(cn4)OCCO5)CC3)c2n1
IC50 [1]: 0.016 µg/mL (≈ 0.0354 µM) | IC50 [2]: 25.1 µM | MIC [3]: 0.125 µg/mL (≈ 0.277 µM) | MIC [4]: 2 µg/mL (≈ 4.43 µM) | IC50 [11]: 0.056 µg/mL (≈ 0.124 µM) | logD [5]: 0.62 | MIC [6]: 0.06 µg/mL (≈ 0.133 µM) | IC50 [7]: 4 µM

COc1ccc2ncc(F)c([C@@H](O)CN3CCC(NCc4cc5c(cn4)OCCO5)CC3)c2n1
IC50 [1]: 0.078 µg/mL (≈ 0.166 µM) | AUC [12]: 720 ng·h/mL | CL [13]: 4.8 mL/min/g | clearance [14]: 15.2 mL/min/kg | MRT [15]: 2.5 h | Vd [16]: 16.5 L/kg | Activity [8]: Active | Vd [17]: 9.8 L/kg | clearance [18]: 16.7 mL/min/kg | AUC [19]: 720 ng·h/mL | log10cfu [9]: 2 | CL [20]: 0.7 mL/min/g | half-life [21]: 12.4 h | bioavailability [22]: 12% | IC50 [2]: 79.4 µM | half-life [23]: 2.5 h | MIC [3]: 0.06 µg/mL (≈ 0.128 µM) | fraction unbound [24]: 0.589 | AUC [25]: 2510 ng·h/mL | fraction unbound [26]: 0.354 | clearance [27]: 67.2 mL/min/kg | MIC [4]: 0.5 µg/mL (≈ 1.06 µM) | logD [5]: 0.59 | half-life [28]: 5.6 h | MRT [29]: 4.6 h | Vd [30]: 4.1 L/kg | bioavailability [31]: 76% | log10cfu [10]: >=4 | QH [32]: 35% | MIC [6]: 0.03 µg/mL (≈ 0.0639 µM) | QH [33]: 35% | CL [34]: < 0.6 mL/min/g | QH [35]: 100% | bioavailability [36]: 51% | fraction unbound [37]: 0.307 | IC50 [7]: 5 µM | MRT [38]: 16.5 h

COc1ccc2ncc(F)c([C@H](O)CN3CCC(NCc4cc5c(cn4)OCCO5)CC3)c2n1
IC50 [1]: 0.098 µg/mL (≈ 0.209 µM) | IC50 [2]: 63.1 µM | MIC [3]: 0.125 µg/mL (≈ 0.266 µM) | MIC [4]: 1 µg/mL (≈ 2.13 µM) | MIC [6]: 0.06 µg/mL (≈ 0.128 µM)
